Laboratory results reported in publication PMC13031153 (Acta Pharmaceutica Sinica. B, 2025).
Like-named read-outs stand apart in the source and are kept apart here.

Columns and labels:
[1] = test system: hκ-OR; details: cited from earlier work
[2] = test system: WT mδ-OR, mδ-OR-Q190^ECL2H, mδ-OR-Q201^ECL2H, mδ-OR-S45^N-terminalH, mδ-OR-E112^ECL1H; type: cell-based, mouse
[3] = test system: mδ-OR mutants; type: cell-based, mouse
[4] = test system: mμ-OR mutants; type: cell-based, mouse; details: mμ-OR mutations at D^3.32, Y^3.33, V^5.43, I^6.51 (Fig. 5J)
[5] = test system: δ/μ^N-terminal Chimera; type: cell-based, mouse
[6] = test system: μ-OR over δ-OR; details: cited from earlier work
[7] = test system: mδ-OR and its variants; experiment: Maximal K+ current density evoked by saturating full agonist, mδ-OR variants; type: cell-based, mouse
[8] = test system: δ-OR; details: cited from earlier work
[9] = biological target: mouse δ-opioid receptor, wild type (mouse) (UniProt P32300); experiment: MST
[10] = biological target: mδ-OR-3M-PSA(28–30)-LGG (mouse) (UniProt P32300); experiment: MST
[11] = biological target: mδ-OR-K108^2.63N (mouse) (UniProt P32300); experiment: MST
[12] = biological target: mδ-OR-K108^2.63N-L125^3.29I-R291^ECL3A (mouse) (UniProt P32300); experiment: MST
[13] = biological target: mδ-OR-R291^ECL3A (mouse) (UniProt P32300); experiment: MST
[14] = biological target: mδ-OR-R292^ECL3E (mouse) (UniProt P32300); experiment: MST

Compound: CC(C)[C@@H](CN1CC[C@@](C)(c2cccc(O)c2)[C@@H](C)C1)NC(=O)[C@H]1Cc2ccc(O)cc2CN1 [JDTic]
- selectivity for hκ-OR [1]: more than 1000 fold

Compound: CN1CC[C@]23c4c5ccc(O)c4O[C@H]2[C@@H](O)C=C[C@H]3[C@H]1C5 [morphine]
- effect of ZnCl2 on agonist activation (control) ([2]; 1 mmol/L ZnCl2, WT mδ-OR, mδ-OR-Q190^ECL2H, mδ-OR-Q201^ECL2H): did not alter
- effect of ZnCl2 on agonist activation (control) ([2]; 3 mmol/L ZnCl2, mδ-OR-S45^N-terminalH, mδ-OR-E112^ECL1H): did not alter
- change in potency for mδ-OR ([3]; mutations of K108^2.63 to Ala or Asn): increased the potency
- agonist-induced activation of mutants ([3]; mδ-OR mutations at D^3.32, Y^3.33, V^5.43, I^6.51 (Fig. 5H)): significant reductions
- agonist-induced activation of mutants [4]: significant reductions

Compound: CC[C@H](C)[C@H](NC(=O)[C@H](C)NC(=O)[C@H](CC(N)=O)NC(=O)[C@H](CCCCN)NC(=O)[C@H](Cc1ccccc1)NC(=O)[C@H](CC(C)C)NC(=O)[C@@H](NC(=O)[C@@H](NC(=O)[C@H](CC(C)C)NC(=O)[C@@H]1CCCN1C(=O)[C@@H](NC(=O)[C@H](CCC(N)=O)NC(=O)[C@H](CO)NC(=O)[C@H](CCCCN)NC(=O)[C@H](CCC(=O)O)NC(=O)[C@H](CO)NC(=O)[C@@H](NC(=O)[C@H](CCSC)NC(=O)[C@H](Cc1ccccc1)NC(=O)CNC(=O)CNC(=O)[C@@H](N)Cc1ccc(O)cc1)[C@@H](C)O)[C@@H](C)O)C(C)C)[C@@H](C)O)C(=O)N[C@H](C(=O)N[C@@H](CCCCN)C(=O)N[C@@H](CC(N)=O)C(=O)N[C@@H](C)C(=O)N[C@@H](Cc1ccc(O)cc1)C(=O)N[C@@H](CCCCN)C(=O)N[C@@H](CCCCN)C(=O)NCC(=O)N[C@@H](CCC(=O)O)C(=O)O)[C@@H](C)CC [β-endorphin]
- EC50 [5]: 10.3 ± 0.9 nM
- preference between μ-OR and δ-OR [6]: no discernible preference

Compound: Leu-enkephalin
- maximum currents vs wild-type receptor [7]: statistically indistinguishable from wild-type receptor

Compound: deltorphin
- selectivity for δ-OR [8]: more than 1000 fold

Compound: endomorphin-1 (peptide)
- Kd [9]: 2940 nM
- Kd [10]: 1.03 nM
- Kd [11]: 299 nM
- Kd [12]: 9.42 nM
- Kd [13]: 344 nM
- Kd [14]: 408 nM

Compound: endomorphin-2 [EM-2]
- μ-OR selectivity over δ-OR [6]: > 1500 fold
